Where a name gives a salt, the structure may show the parent alone. Read-outs that look alike come from different tables or passages of the source.
How the values were obtained:
hPAD4 = hPAD4 (Homo sapiens, UniProt Q9UM07); assay: hPAD4 RFMS (RapidFire mass spectrometry) PAD4 inhibition assay; assay type: biochemical; conditions: hPAD4 enzyme, RFMS readout;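 on hPAD4 RFMS pIC50: grade E means pIC50 at most 4 and F means pIC50 4.0 to 5.0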
Experimental: (§1) Compounds of the present invention were assayed as inhibitors of PAD4 using the assay protocol described below.
(§2) Compound stock solutions were stored at RT. […] Final assay conditions were as follows:
(§3) Total incubation time: 65 mins at 37° C.
(§4) Stop solution: 40 μl 5% TCA in ACN
(§5) The compound numbers correspond to the compound numbers in Table 1. […] The term pIC50=−log(IC50). […] “NA” stands for “not assayed.”

mPAD4 = mPAD4 (Mus musculus, UniProt Q9Z183); assay: mPAD4 RFMS PAD4 inhibition assay; assay type: biochemical; conditions: mPAD4, RFMS readout;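 on mPAD4 RFMS pIC50: grade E means pIC50 at most 4 and F means pIC50 4.0 to 5.0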
Experimental: as §1, §2, §3, §4, §5

[1] = pIC50=−log(IC50), read-out: hPAD4 RFMS pIC50 (converted)
[2] = pIC50=−log(IC50), read-out: mPAD4 RFMS pIC50 (converted)

hPAD4, sequence (Q9UM07 whole entry): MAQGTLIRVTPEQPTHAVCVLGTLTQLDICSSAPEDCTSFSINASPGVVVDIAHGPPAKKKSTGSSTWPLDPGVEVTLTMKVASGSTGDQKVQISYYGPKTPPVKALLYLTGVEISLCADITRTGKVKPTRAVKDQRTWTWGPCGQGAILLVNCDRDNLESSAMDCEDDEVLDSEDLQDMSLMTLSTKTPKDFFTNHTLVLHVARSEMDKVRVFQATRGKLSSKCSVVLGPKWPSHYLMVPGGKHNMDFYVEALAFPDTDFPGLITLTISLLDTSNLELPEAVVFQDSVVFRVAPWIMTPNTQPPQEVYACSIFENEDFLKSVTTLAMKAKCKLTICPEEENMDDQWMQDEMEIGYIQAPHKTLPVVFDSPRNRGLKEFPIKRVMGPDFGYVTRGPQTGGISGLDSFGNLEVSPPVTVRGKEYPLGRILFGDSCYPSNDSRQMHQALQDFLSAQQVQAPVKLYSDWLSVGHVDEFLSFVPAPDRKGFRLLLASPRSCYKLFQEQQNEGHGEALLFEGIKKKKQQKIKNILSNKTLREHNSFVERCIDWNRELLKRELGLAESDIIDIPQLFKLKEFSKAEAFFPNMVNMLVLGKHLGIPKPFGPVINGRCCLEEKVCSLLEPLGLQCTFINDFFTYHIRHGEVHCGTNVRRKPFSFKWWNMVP
mPAD4, sequence (Q9Z183 whole entry): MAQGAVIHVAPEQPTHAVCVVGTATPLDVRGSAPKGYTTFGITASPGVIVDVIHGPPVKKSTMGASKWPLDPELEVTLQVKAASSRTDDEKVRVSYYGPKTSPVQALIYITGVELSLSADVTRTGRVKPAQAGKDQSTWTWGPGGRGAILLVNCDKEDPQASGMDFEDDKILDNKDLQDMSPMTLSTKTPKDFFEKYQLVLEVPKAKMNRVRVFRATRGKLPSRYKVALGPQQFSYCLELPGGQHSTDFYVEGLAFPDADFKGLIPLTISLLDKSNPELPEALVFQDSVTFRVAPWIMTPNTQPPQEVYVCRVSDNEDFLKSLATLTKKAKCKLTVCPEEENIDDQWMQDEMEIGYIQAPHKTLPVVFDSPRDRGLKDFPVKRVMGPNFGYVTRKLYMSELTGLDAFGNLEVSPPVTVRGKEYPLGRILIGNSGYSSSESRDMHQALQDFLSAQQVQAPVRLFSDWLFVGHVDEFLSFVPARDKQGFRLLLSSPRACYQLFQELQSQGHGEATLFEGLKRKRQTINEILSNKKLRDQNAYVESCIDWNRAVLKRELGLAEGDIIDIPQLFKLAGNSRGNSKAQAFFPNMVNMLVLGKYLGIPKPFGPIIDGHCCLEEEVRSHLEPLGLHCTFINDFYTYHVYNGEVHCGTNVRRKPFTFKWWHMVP

| SMILES | IC50 (hPAD4; [1]) [µM] | IC50 (hPAD4; read-out: hPAD4 RFMS IC50) [µM] | IC50 (mPAD4; [2]) [µM] | IC50 (mPAD4; read-out: mPAD4 RFMS IC50) [µM] |
| --- | --- | --- | --- | --- |
| COc1cc(C(=O)N2CC[C@]3(CNCCC3(F)F)C2)cc2nc(-c3cc4cccnc4n3CC3CC3)n(C)c12 [Compound I-107] | 10 to 100 | > 10 | 10 to 100 | > 10 |
| COc1cc(C(=O)N2CC[C@H]3CCN[C@H]3C2)cc2nc(-c3cc4cccnc4n3CC3CC3)n(C)c12 [Compound I-17] | 10 to 100 | > 10 | 10 to 100 | > 10 |
| COC1CCN(C(=O)c2ccc3c(c2)nc(-c2cc4cccnc4n2CC2CC2)n3C)CC1N (racemic) [Compound I-62, 1-{2-[1-(cyclopropylmethyl)-1H-pyrrolo[2,3-b]pyridin-2-yl]-1-methyl-1H-1,3-benzodiazole-5-carbonyl}-4-methoxypiperidin-3-amine] | 1 to 10 | 1 to 5 | 1 to 10 | 5 to 10 |
| CCn1c(-c2nc3cc(C(=O)N4C[C@H]5CC[C@@H]4[C@@H]5N)cc(OC)c3n2CC2CC(F)(F)C2)cc2cccnc21 [Compound I-179] | < 1 | < 1 | 1 to 10 | 1 to 5 |
| COc1cc(C(=O)N2CC3CC(N)C2C3)cc2nc(-c3cc4cccnc4n3CC3CC3)n(C)c12 (racemic) [Compound I-99] | > 100 | > 10 | > 100 | > 10 |
| COc1cc(C(=O)N2C[C@H]3CC[C@@H]2[C@@H]3N)cc2nc(-c3cc4cccnc4n3CCF)n(C)c12 [Compound I-157] | 1 to 10 | 1 to 5 | 1 to 10 | 1 to 5 |
| COc1cc(C(=O)N2C[C@H]3CC[C@@H]2[C@@H]3N)cc2nc(-c3cc4ccc(C(F)(F)F)nc4n3CC3CC3)n(C)c12 [Compound I-196] | < 1 | < 1 | < 1 | < 1 |
| CCn1c(-c2nc3cc(C(=O)N4C[C@H]5CC[C@@H]4[C@@H]5N)cc(OC)c3n2C)cc2cccnc21 [Compound I-159] | < 1 | < 1 | < 1 | < 1 |
| CN[C@@H]1C[C@@H](O)CN(C(=O)c2cc(OC)c3c(c2)nc(-c2cc4cccnc4n2CC2CC2)n3C)C1 (racemic) [Compound I-77, Rel-(3R,5R)-1-{2-[1-(cyclopropylmethyl)-1H-pyrrolo[2,3-b]pyridin-2-yl]-7-methoxy-1-methyl-1H-1,3-benzodiazole-5-carbonyl}-5-(methylamino)piperidin-3-ol hydrochloride] | 10 to 100 | > 10 | 10 to 100 | > 10 |
| Cn1c(-c2cc3cccnc3n2CC2CC2)nc2cc(C(=O)N3CCC[C@@H](N)C3)cc(F)c21 [Compound I-166] | < 1 | < 1 | 1 to 10 | 1 to 5 |
| COc1cc(C(=O)N2C[C@H](N)C[C@@H](F)C2)cc2nc(-c3cc4ccc(C(F)(F)F)nc4n3CC3CC3)n(C)c12 [Compound I-208] | < 1 | < 1 | < 1 | < 1 |
| COc1cc(C(=O)N2CC(O)(C3(N)CCCC3)C2)cc2nc(-c3cc4cccnc4n3CC3CC3)n(C)c12 [Compound I-84] | 10 to 100 | > 10 | 10 to 100 | > 10 |
| CCn1c(-c2nc3cc(C(=O)N4C[C@H]5CC[C@@H]4[C@@H]5N)cc(OC)c3n2C)cc2cccnc21 (racemic) [Compound I-143] | < 1 | < 1 | < 1 | < 1 |
| CO[C@H]1CCN(C(=O)c2cc(OC(F)F)c3c(c2)nc(-c2cc4cccnc4n2CC2CC2)n3C)C[C@H]1N [Compound I-134] | 1 to 10 | 1 to 5 | < 1 | < 1 |
| COc1cc(C(=O)N2CCCC3(CNC3)C2)cc2nc(-c3cc4cccnc4n3CC3CC3)n(C)c12 [Compound I-100] | > 100 | > 10 | > 100 | > 10 |
| CCn1c(-c2nc3cc(C(=O)N4C[C@H]5CC[C@@H]4[C@@H]5N)cc(OC)c3n2[C@H]2C[C@H](OC)C2)cc2cccnc21 [Compound I-207] | 1 to 10 | 5 to 10 | 1 to 10 | 1 to 5 |
| COc1ccc2cc(-c3nc4cc(C(=O)N5CC[C@@H](OC)[C@@H](N)C5)ccc4n3C)n(CC3CC3)c2n1 [Compound I-127] | 1 to 10 | 1 to 5 | 1 to 10 | 1 to 5 |
| COc1cc(C(=O)N2C[C@@H](N)CC[C@@H]2C)cc2nc(-c3cc4cccnc4n3CC3CC3)n(C)c12 [Compound I-89] | 10 to 100 | > 10 | 10 to 100 | > 10 |
| COc1cc(C(=O)N2CCC[C@@H](N)C2)cc2nc(-c3cc4cccnc4n3CC3CC3)n(C[C@H]3C[C@@](C)(OC)C3)c12 [Compound I-182] | < 1 | < 1 | < 1 | < 1 |
| COc1cc(C(=O)N2C[C@H]3CC[C@@H]2[C@@H]3N)cc2nc(-c3cc4cccnc4n3CC3CC3)n(CCSC)c12 [Compound I-235] | < 1 | < 1 | < 1 | < 1 |
| COc1cc(C(=O)N2C[C@H]3CC[C@@H]2[C@@H]3N)cc2nc(-c3cc4cccnc4n3CC3CC3)n(CCS(C)(=O)=O)c12 [Compound I-214, (1R,4R,7R)-2-{2-[1-(cyclopropylmethyl)-1H-pyrrolo[2,3-b]pyridin-2-yl]-1-(2-methanesulfonylethyl)-7-methoxy-1H-1,3-benzodiazole-5-carbonyl}-2-azabicyclo[2.2.1]heptan-7-amine] | < 1 | < 1 | 1 to 10 | 1 to 5 |
| CCCn1c(-c2nc3cc(C(=O)N4CCC[C@@H](N)C4)cc(OC)c3n2C)cc2cccnc21 [Compound I-149] | < 1 | < 1 | < 1 | < 1 |
| CCn1c(-c2nc3cc(C(=O)N4C[C@H]5CC[C@@H]4[C@@H]5N)cc(OC)c3n2CC2CCOCC2)cc2cccnc21 [Compound I-173] | < 1 | < 1 | 1 to 10 | 1 to 5 |
| CCn1c(-c2nc3cc(C(=O)N4C[C@H]5CC[C@@H]4[C@@H]5N)ccc3n2C)cc2cccnc21 [Compound I-152] | 1 to 10 | 1 to 5 | 1 to 10 | 5 to 10 |
| CCn1c(-c2nc3cc(C(=O)N4C[C@H]5CC[C@@H]4[C@@H]5N)cc(OC)c3n2C)cc2ccc(C(F)F)nc21 [Compound I-189, (1R,4R,7R)-2-{2-[6-(Difluoromethyl)-1-ethyl-1H-pyrrolo[2,3-b]pyridin-2-yl]-7-methoxy-1-methyl-1H-1,3-benzodiazole-5-carbonyl}-2-azabicyclo[2.2.1]heptan-7-amine] | < 1 | < 1 | < 1 | < 1 |
| COCCn1c(-c2nc3cc(C(=O)N4CCC[C@@H](N)C4)ccc3n2C)cc2ccc(OC)nc21 [Compound I-193] | 1 to 10 | 1 to 5 | 1 to 10 | 1 to 5 |
| CCn1c(-c2nc3cc(C(=O)N4CC5CCC4C5N)cc(OC)c3n2C)cc2ccc(OC)nc21 (racemic) [Compound I-136] | < 1 | < 1 | < 1 | < 1 |
| Cn1c(-c2cc3cccnc3n2CC2CC2)nc2cc(C(=O)N3CC[C@@H]4CCN[C@@H]4C3)ccc21 [Compound I-18] | 10 to 100 | > 10 | 10 to 100 | > 10 |
| Cn1c(-c2cc3cccnc3n2CC2CC(C)(O)C2)nc2cc(C(=O)N3CCC[C@@H](N)C3)ccc21 (stereo partly drawn) [Compound I-110, 3-[(2-{5-[(3R)-3-Aminopiperidine-1-carbonyl]-1-methyl-1H-1,3-benzodiazol-2-yl}-1H-pyrrolo[2,3-b]pyridin-1-yl)methyl]-1-methylcyclobutan-1-ol] | 1 to 10 | 1 to 5 | 10 to 100 | > 10 |

From US9963448B2, “Bicyclic inhibitors of PAD4” (Padlock Therapeutics, Inc., priority 2015, dated 2018)
